Columns and labels:
Format in all cases: in vivo
[1] = tested on: ragweed (common ragweed, Ambrosia elatior); assay: Test A preemergence; details: Ambrosia artemisiifolia, pre-emergence, 240 h, preemergence, 0 to 100 scale where 0 is no effect and 100 is complete control, read-out: Ragweed plant response rating; for pest or weed control at 125 g/ha: 125 g ai/ha, visual injury rating, approximately 10 d; for pest or weed control at 500 g/ha: 500 g ai/ha
In short: (§1)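 Each rating is a visual injury score from 0 to 100 given about 10 d after treatment, judged against untreated controls kept alongside in the greenhouse. In loam soil–sand blend, seeds got a preemergence directed soil spray, while postemergence plants were 2 to 10 cm tall at spraying.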

[2] = tested on: Galium (catchweed bedstraw, Galium aparine); assay: Test A postemergence; details: Galium, post-emergence, 240 h, postemergence; for pest or weed control at 125 g/ha: 125 g ai/ha, visual injury vs untreated controls after approx. 10 d, 0 = no effect, 100 = complete control, read-out: Galium plant response rating (0 to 100 scale); for pest or weed control at 500 g/ha: 500 g ai/ha, 0 to 100 scale, 0 is no effect, 100 is complete control, read-out: Galium plant response rating
In short: as §1

[3] = tested on: ragweed (common ragweed, Ambrosia elatior); assay: Test A postemergence; details: Ambrosia artemisiifolia, post-emergence, 240 h, postemergence; for pest or weed control at 125 g/ha: 125 g ai/ha, visual injury vs untreated controls after approx. 10 d, 0 = no effect, 100 = complete control, read-out: Ragweed plant response rating (0 to 100 scale); for pest or weed control at 500 g/ha: 500 g ai/ha, 0 to 100 scale, 0 is no effect, 100 is complete control, read-out: Ragweed plant response rating
In short: as §1

corn (Zea mays) = assay: Test A postemergence; details: Zea mays, post-emergence, 240 h, postemergence; for plant injury at 125 g/ha: 125 g ai/ha, visual injury vs untreated controls after approx. 10 d, 0 = no effect, 100 = complete control, read-out: Corn plant response rating (0 to 100 scale); for plant injury at 500 g/ha: 500 g ai/ha, 0 to 100 scale, 0 is no effect, 100 is complete control, read-out: Corn plant response rating
In short: as §1

[4] = tested on: wheat (Triticum aestivum); assay: Test A postemergence; details: Triticum aestivum, post-emergence, 240 h, postemergence; for plant injury at 125 g/ha: 125 g ai/ha, visual injury vs untreated controls after approx. 10 d, 0 = no effect, 100 = complete control, read-out: Wheat plant response rating (0 to 100 scale); for plant injury at 500 g/ha: 500 g ai/ha, 0 to 100 scale, 0 is no effect, 100 is complete control, read-out: Wheat plant response rating
In short: as §1

[5] = tested on: blackgrass (Alopecurus myosuroides); assay: Test A postemergence; details: Alopecurus myosuroides, post-emergence, 240 h, postemergence; for pest or weed control at 125 g/ha: 125 g ai/ha, visual injury vs untreated controls after approx. 10 d, 0 = no effect, 100 = complete control, read-out: Blackgrass plant response rating (0 to 100 scale); for pest or weed control at 500 g/ha: 500 g ai/ha, 0 to 100 scale, 0 is no effect, 100 is complete control, read-out: Blackgrass plant response rating
In short: as §1

[6] = tested on: barnyardgrass (Echinochloa crus-galli); assay: Test A postemergence; details: Echinochloa crus-galli, post-emergence, 240 h, postemergence; for pest or weed control at 125 g/ha: 125 g ai/ha, visual injury vs untreated controls after approx. 10 d, 0 = no effect, 100 = complete control, read-out: Barnyardgrass plant response rating (0 to 100 scale); for pest or weed control at 500 g/ha: 500 g ai/ha, 0 to 100 scale, 0 is no effect, 100 is complete control, read-out: Barnyardgrass plant response rating
In short: as §1

[7] = tested on: ryegrass, Italian (Italian ryegrass, Lolium multiflorum); assay: Test A postemergence; details: Lolium multiflorum, post-emergence, 240 h, postemergence; for pest or weed control at 125 g/ha: 125 g ai/ha, visual injury vs untreated controls after approx. 10 d, 0 = no effect, 100 = complete control, read-out: Ryegrass, Italian plant response rating (0 to 100 scale); for pest or weed control at 500 g/ha: 500 g ai/ha, 0 to 100 scale, 0 is no effect, 100 is complete control, read-out: Ryegrass, Italian plant response rating
In short: as §1

[8] = tested on: giant foxtail (Setaria faberii); assay: Test A postemergence; details: Setaria faberi, post-emergence, 240 h, postemergence; for pest or weed control at 125 g/ha: 125 g ai/ha, visual injury vs untreated controls after approx. 10 d, 0 = no effect, 100 = complete control, read-out: Foxtail, Giant plant response rating (0 to 100 scale); for pest or weed control at 500 g/ha: 500 g ai/ha, 0 to 100 scale, 0 is no effect, 100 is complete control, read-out: Foxtail, Giant plant response rating
In short: as §1

Kochia (Kochia scoparia) = assay: Test A postemergence; details: Bassia scoparia, post-emergence, 240 h, postemergence; for pest or weed control at 125 g/ha: 125 g ai/ha, visual injury vs untreated controls after approx. 10 d, 0 = no effect, 100 = complete control, read-out: Kochia plant response rating (0 to 100 scale); for pest or weed control at 500 g/ha: 500 g ai/ha, 0 to 100 scale, 0 is no effect, 100 is complete control, read-out: Kochia plant response rating
In short: as §1

[9] = tested on: pigweed (Amaranthus retroflexus); assay: Test A postemergence; details: Amaranthus retroflexus, post-emergence, 240 h, postemergence; for pest or weed control at 125 g/ha: 125 g ai/ha, visual injury vs untreated controls after approx. 10 d, 0 = no effect, 100 = complete control, read-out: Pigweed plant response rating (0 to 100 scale); for pest or weed control at 500 g/ha: 500 g ai/ha, 0 to 100 scale, 0 is no effect, 100 is complete control, read-out: Pigweed plant response rating
In short: as §1

[10] = tested on: barnyardgrass (Echinochloa crus-galli); assay: Test B flooded paddy test; details: Echinochloa crus-galli, 250 g ai/ha, Flood; 0 to 100 scale where 0 is no effect and 100 is complete control; read-out: Barnyardgrass plant response rating
In short: (§2)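 Rating scale 0–100 (visual, vs untreated controls) after a 13–15 d greenhouse period; application to the flood layer, 3 cm above soil and maintained; plants at 2-leaf stage when treated.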

[11] = tested on: sedge, umbrella (small-flower umbrella sedge, Cyperus difformis); assay: Test B flooded paddy test; details: Cyperus difformis, 250 g ai/ha, Flood; 0 to 100 scale where 0 is no effect and 100 is complete control; read-out: Sedge, Umbrella plant response rating
In short: as §2

rice (Oryra sativa) = assay: Test B flooded paddy test; details: Oryza sativa, 250 g ai/ha, Flood; 0 to 100 scale where 0 is no effect and 100 is complete control; read-out: Rice plant response rating
In short: as §2

[12] = tested on: ducksalad (Heteranthera limosa); assay: Test B flooded paddy test; details: Heteranthera limosa, 250 g ai/ha, Flood; 0 to 100 scale where 0 is no effect and 100 is complete control; read-out: Ducksalad plant response rating
In short: as §2

Structure (SMILES): CSc1ccccc1NC(=O)[C@H]1C(=O)N(C)C[C@@H]1c1ccc(C(F)(F)F)nc1 [Compound 1198]
- pest or weed control at 125 g/ha [1]: 70%
- pest or weed control at 500 g/ha [1]: 100%
- pest or weed control at 125 g/ha [2]: 40%
- pest or weed control at 500 g/ha [2]: 50%
- pest or weed control at 125 g/ha [3]: 0%
- pest or weed control at 500 g/ha [3]: 30%
- plant injury at 125 g/ha (corn (Zea mays)): 0%
- plant injury at 500 g/ha (corn (Zea mays)): 20%
- plant injury at 125 g/ha [4]: 0%
- plant injury at 500 g/ha [4]: 60%
- pest or weed control at 125 g/ha [5]: 20%
- pest or weed control at 500 g/ha [5]: 60%
- pest or weed control at 125 g/ha [6]: 80%
- pest or weed control at 500 g/ha [6]: 90%
- pest or weed control at 125 g/ha [7]: 0%
- pest or weed control at 500 g/ha [7]: 30%
- pest or weed control at 125 g/ha [8]: 80%
- pest or weed control at 500 g/ha [8]: 90%
- pest or weed control at 125 g/ha (Kochia (Kochia scoparia)): 60%
- pest or weed control at 500 g/ha (Kochia (Kochia scoparia)): 60%
- pest or weed control at 125 g/ha [9]: 40%
- pest or weed control at 500 g/ha [9]: 70%
- pest or weed control at 250 g/ha [10]: 20%
- pest or weed control at 250 g/ha [11]: 30%
- pest or weed control at 250 g/ha (rice (Oryra sativa)): 0%
- pest or weed control at 250 g/ha [12]: 40%

Structure (SMILES): CN1C[C@H](c2ccc(C#N)cc2)[C@@H](C(=O)Nc2ccccc2F)C1=O [Compound 1207]
- pest or weed control at 125 g/ha [1]: 30%
- pest or weed control at 500 g/ha [1]: 90%
- pest or weed control at 125 g/ha [2]: 20%
- pest or weed control at 500 g/ha [2]: 40%
- pest or weed control at 125 g/ha [3]: 0%
- pest or weed control at 500 g/ha [3]: 30%
- plant injury at 125 g/ha (corn (Zea mays)): 0%
- plant injury at 500 g/ha (corn (Zea mays)): 0%
- plant injury at 125 g/ha [4]: 0%
- plant injury at 500 g/ha [4]: 0%
- pest or weed control at 125 g/ha [5]: 0%
- pest or weed control at 500 g/ha [5]: 0%
- pest or weed control at 125 g/ha [6]: 70%
- pest or weed control at 500 g/ha [6]: 100%
- pest or weed control at 125 g/ha [7]: 0%
- pest or weed control at 500 g/ha [7]: 0%
- pest or weed control at 125 g/ha [8]: 50%
- pest or weed control at 500 g/ha [8]: 90%
- pest or weed control at 125 g/ha (Kochia (Kochia scoparia)): 20%
- pest or weed control at 500 g/ha (Kochia (Kochia scoparia)): 60%
- pest or weed control at 125 g/ha [9]: 0%
- pest or weed control at 500 g/ha [9]: 20%
- pest or weed control at 250 g/ha [10]: 0%
- pest or weed control at 250 g/ha [11]: 0%
- pest or weed control at 250 g/ha (rice (Oryra sativa)): 0%
- pest or weed control at 250 g/ha [12]: 100%

Structure (SMILES): CN1C[C@H](c2ccc(C#N)cc2)[C@@H](C(=O)Nc2cccc(F)c2F)C1=O [Compound 1208]
- pest or weed control at 125 g/ha [1]: 40%
- pest or weed control at 500 g/ha [1]: 100%
- pest or weed control at 125 g/ha [2]: 40%
- pest or weed control at 500 g/ha [2]: 50%
- pest or weed control at 125 g/ha [3]: 0%
- pest or weed control at 500 g/ha [3]: 40%
- plant injury at 125 g/ha (corn (Zea mays)): 20%
- plant injury at 500 g/ha (corn (Zea mays)): 50%
- plant injury at 125 g/ha [4]: 0%
- plant injury at 500 g/ha [4]: 20%
- pest or weed control at 125 g/ha [5]: 0%
- pest or weed control at 500 g/ha [5]: 0%
- pest or weed control at 125 g/ha [6]: 100%
- pest or weed control at 500 g/ha [6]: 100%
- pest or weed control at 125 g/ha [7]: 0%
- pest or weed control at 500 g/ha [7]: 0%
- pest or weed control at 125 g/ha [8]: 70%
- pest or weed control at 500 g/ha [8]: 90%
- pest or weed control at 125 g/ha (Kochia (Kochia scoparia)): 70%
- pest or weed control at 500 g/ha (Kochia (Kochia scoparia)): 70%
- pest or weed control at 125 g/ha [9]: 30%
- pest or weed control at 500 g/ha [9]: 60%
- pest or weed control at 250 g/ha [10]: 45%
- pest or weed control at 250 g/ha [11]: 0%
- pest or weed control at 250 g/ha (rice (Oryra sativa)): 15%
- pest or weed control at 250 g/ha [12]: 95%
